According to PMC3822755 (Bioorganic & medicinal chemistry letters, 2013):

How the values were obtained:
[1] = system: VSV-GP (vesicular stomatitis virus particle bearing the EBOV GP); type: cell-based
[2] = system: VSV-G (VSV bearing its native envelope glycoprotein G); type: cell-based, vesicular stomatitis virus; Vero host cells

Row | Molecule | activity against VSV-GP entry (in words) [1] | inhibition of VSV-GP entry [1] [%] | potency against VSV-GP compared with 1-Chol and 2-Chol ([1]; 20 µM) | activity against VSV-G (in words) [2]
1 | KKKKGSGC(Chol) ^b [Peptide 3-Chol] | active | > 90 | much less potent | active
2 | CC(C)CCC[C@@H](C)[C@H]1CC[C@H]2[C@@H]3CC=C4C[C@@H](O)CC[C@]4(C)[C@H]3CC[C@]12C [cholesterol, reference compound] | relatively modest effects | – | – | –
